Patent US7763585B2, “Methods for inhibiting tumor cell proliferation” (priority 2003, dated 2010)

Key:
Stat5 = assay: EMSA, Stat5 DNA-binding activity in vitro (MGFe probe); format: biochemical, mouse; conditions: FIG. 1B
Procedure: (§1) FIGS. 1A-D are photographs showing EMSA analyses of DNA-binding activities and effects of platinum complexes. Nuclear extracts containing activated Stat1, Stat3 and Stat5 are treated with the indicated concentrations of platinum complex ISSCPA-1, ISSCPA-3, ISSCPA-7, or PtCl4 for 30 min at room temperature prior to incubation with radiolabeled oligonucleotide probes. […] Positions of complexes of DNA with STAT, E2F1 or NFκB (p65, p50) in gel are labeled. Control lanes represent nuclear extracts that are not pre-incubated with platinum complexes.
(§2) Nuclear extracts were prepared from cell lines and used for EMSA as previously described (Turkson et al., 1998; Yu et al., 1995; Garcia et al., 1997). In some cases, cells were pre-treated with platinum complexes for the indicated times prior to harvesting. Where cells were stimulated with EGF (6 ng/ml), duration of treatment was 15 min. Nuclear extracts were pre-incubated with compounds for 30 min at room temperature prior to incubation with radiolabeled probe. The ^32P-radiolabeled oligonucleotide probes used are hSIE (high affinity sis-inducible element, m67 variant, 5′-[…]-3′) (SEQ ID NO:1) that binds both Stat1 and Stat3 (Garcia et al., 1997; Wagner et al., 1990), MGFe (mammary gland factor element from the bovine β-casein gene promoter, 5′-AGATTTCTAGGAATTCAA-3′) (SEQ ID NO:2) that binds Stat1 and Stat5 (Gouilleux et al., 1995; Seidel et al., 1995), the NF-κB binding oligo (5′-[…]-3′) (SEQ ID NO:3), and the oligonucleotide sequence from the DHFR promoter that binds E2F1.
(§3) Platinum compounds were evaluated for inhibitory activity against STAT DNA-binding in vitro.

[1] = test system: human breast and non-small cell lung cancer cell lines; assay: Cell proliferation ([3H]-thymidine incorporation) of human breast and non-small cell lung cancer cell lines; format: cell-based; conditions: FIG. 6
From the text: (§4) FIGS. 6A and 6B show the effects of platinum complexes on cell proliferation and viability. […] Values are the mean and S.D. of 3-4 independent determinations.
(§5) The effects of platinum complexes on cell proliferation measured by [^3H]-thymidine incorporation were investigated.

[2] = test system: normal NIH3T3 fibroblasts; assay: TUNEL staining for apoptosis, normal fibroblasts; format: cell-based, mouse; conditions: 48 h treatment, FIG. 7
Procedure: FIG. 7 is a photograph showing induction of apoptosis by platinum complexes. Normal NIH3T3 fibroblasts and their v-Src-transformed counterparts were treated with platinum complexes for 48 h and analyzed for evidence of DNA damage using TUNEL staining kit.
Proliferating cells were counted by phase-contrast microscopy for viable cells (using trypan blue exclusion. TUNEL staining was carried according to supplier's instructions to detect apoptotic cells. Cells (NIH3T3 or NIH3T3/v-Src) were first treated with or without compounds 24-48 h prior to staining.
Studies have established a critical role for constitutive Stat3 signaling in the survival of transformed and tumor cells (Catlett-Falcone et al., 1999a; Grandis et al., 2000a; Epling-Burnette et al., 2001; Bowman et al., 2000b; Grandis et al., 2000b; Horiguchi et al., 2002). Effects of the subject platinum compounds on viability and survival of malignant cells were evaluated. To determine whether inhibition of persistently-active Stat3 by the subject compounds results in apoptosis, Src-transformed and normal mouse fibroblasts were treated with the subject platinum compounds and subjected to TUNEL staining for evidence of apoptosis.

[3] = test system: human tumor cells that do not contain constitutively-active Stat3; assay: Cell proliferation ([3H]-thymidine incorporation) of human tumor cells without constitutively-active Stat3; format: cell-based; conditions: FIG. 6; reduction in growth rate but not growth inhibitory
From the text: as §4, §5

[4] = test system: Stat3-dependent luciferase reporter (pLucTKS3); assay: Stat3-dependent firefly luciferase reporter in NIH3T3/v-Src/pLucTKS3; format: cell-based, mouse; conditions: NIH3T3/v-Src/pLucTKS3, FIG. 4
Procedure: FIGS. 4A-B show inhibition of Stat3-mediated gene expression in intact cells by platinum complexes. v-Src-transformed mouse fibroblasts that stably express Stat3-dependent (NIH3T3/v-Src/pLucTKS3) and Stat3-independent (NIH3T3/v-Src/pRLSRE) luciferase reporters were treated with platinum complexes for the indicated times. Cytosolic extracts were then prepared from cells for Stat3-dependent firefly luciferase activity (FIG. 4A) and Stat3-independent renilla luciferase measurements (FIG. 4B). Values are the means and S.D. of five independent assays. […]
Cytosolic lysates preparation from fibroblasts for luciferase assays or from baculovirus-infected Sf-9 insect cells have been previously described (Turkson et al., 1998; Turkson et al., 2001; Turkson et al., 1999; Zhang et al., 2000). Luciferase assays were performed as outlined in the supplier's (Promega) manual and measured with a luminometer. […]

Stat3:Stat3 = molecular target: T1, Stat3:Stat3 (Mus musculus, UniProt P42227); assay: EMSA, disruption of Stat3:Stat3 DNA-binding activity in vitro (hSIE probe); format: biochemical; conditions: for Level of DNA-binding activity of Stat3 (EMSA): EGF-stimulated fibroblast nuclear extracts, 30 min preincubation, FIG. 1A; for IC50: nuclear extracts pre-incubated 30 min at room temperature, read-out: IC50 for disruption of STAT DNA-binding activity in vitro, Stat3:Stat3
T1 construct: endogenous in cells; host or cells: EGF-stimulated fibroblasts (nuclear extract)
T1 sequence (P42227 2-770 limits assumed): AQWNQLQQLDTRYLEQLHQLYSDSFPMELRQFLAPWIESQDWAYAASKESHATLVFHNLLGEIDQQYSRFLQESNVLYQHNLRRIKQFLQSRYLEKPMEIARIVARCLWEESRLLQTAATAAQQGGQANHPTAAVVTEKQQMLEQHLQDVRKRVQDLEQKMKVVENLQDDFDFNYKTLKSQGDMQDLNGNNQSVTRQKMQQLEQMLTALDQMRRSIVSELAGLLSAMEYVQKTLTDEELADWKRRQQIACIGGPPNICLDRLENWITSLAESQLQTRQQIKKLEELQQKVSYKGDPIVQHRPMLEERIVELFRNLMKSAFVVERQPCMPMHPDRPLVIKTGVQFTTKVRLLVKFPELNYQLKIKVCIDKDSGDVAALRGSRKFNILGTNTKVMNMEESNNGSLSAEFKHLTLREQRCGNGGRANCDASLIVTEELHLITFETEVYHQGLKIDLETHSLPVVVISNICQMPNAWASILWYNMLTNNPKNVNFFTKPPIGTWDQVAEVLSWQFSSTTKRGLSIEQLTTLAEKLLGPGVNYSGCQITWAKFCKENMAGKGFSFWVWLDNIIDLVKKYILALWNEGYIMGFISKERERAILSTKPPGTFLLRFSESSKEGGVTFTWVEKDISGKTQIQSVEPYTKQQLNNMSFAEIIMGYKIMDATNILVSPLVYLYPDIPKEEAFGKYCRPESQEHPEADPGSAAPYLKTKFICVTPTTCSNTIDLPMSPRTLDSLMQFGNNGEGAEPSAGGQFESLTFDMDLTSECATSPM
Procedure: as §1, §2, §3

SMILES | Inhibitory effect on Stat5 DNA-binding activity (EMSA) (Stat5) | Growth of human breast and non-small cell lung cancer cell lines ([3H]-thymidine incorporation) [1] | Apoptosis (TUNEL staining) in normal fibroblasts [2] | Growth of human tumor cells that do not contain constitutively-active Stat3 [3] | Stat3-dependent induction of luciferase reporter [4] | Level of DNA-binding activity of Stat3 (EMSA) (Stat3:Stat3) | IC50 (Stat3:Stat3) [µM]
[NH2][Pt]([NH2])([Cl])([Cl])([Cl])[N+](=O)[O-] [ISS CPA-7] | much reduced inhibitory effect | strongly inhibited | marginal degree of apoptosis | marginal effect | significantly suppress | dose-dependent reduction | 1.5
O=[N+]([O-])[Pt]1([Cl])([Cl])([Cl])[NH]CC[NH]1 [ISS CPA-1] | much reduced inhibitory effect | strongly inhibited | marginal degree of apoptosis | marginal effect | significantly suppress | dose-dependent reduction | 5
